In patent US11827609B2, “Toll like receptor modulator compounds” (GILEAD SCIENCES, INC., priority 2016, dated 2023):

Tests used:
Format in all cases: cell-based
[1] = test system: TNFα; assay: Cytokine profiling assay in human PBMCs, TNFα detection (MSD); conditions: PBMC; cryopreserved human PBMCs, 24 hours at 37° C., half-maximal effect on normalized percent activation; read-out: TNFa AC50
Description: (§1) Cryopreserved human PBMCs isolated from healthy donors were purchased from StemCell Technologies (Vancouver, Canada). Cell culture medium used was RPMI with L-Glutamine (Mediatech, Manassas, Va.) supplemented with 10% fetal bovine serum (Hyclone, GE Healthcare, Logan, Utah) and Penicillin-Streptomycin (Mediatech). Human TNFα, IL12p40, and IFNα2a 384-well Assay capture plates, standards, buffers and processing reagents were obtained from MesoScale Discovery Technologies (MSD; Rockville, Md.).
(§2) Cryopreserved human PBMCs (1×10e8 cells/ml) were thawed at 37° C. and resuspended in 25 mL warm cell culture medium. The cells were pelleted at 200×g (Beckman Avanti J-E) for 5 min and resuspended in 20 mL of fresh culture media. Cells were counted using a Cellometer (Nexcelcom Bioscience), adjusted to 2×10e6 cells, and incubated for 2 hours in an incubator set at 37° C., 5% CO2 to recover from cryopreservation. Compounds were serially diluted in DMSO at half-log steps to generate a 10-point dose range. Using a Bravo pipette equipped with a 384 well head (Agilent), 0.4 μL of compound was transferred to each well of a 384 well black, clear bottom plate (Greiner Bio-One, Germany) containing 30 μL of cell culture medium. Recovered PBMCs were then dispensed into the assay plate at 50 μL per well (100 k cells/well) using the MicroFlow multichannel dispenser (Biotek). Final DMSO concentration was 0.5%. DMSO was used as the negative control. The plates were incubated for 24 hours at 37° C. PBMCs in the assay plate were pelleted by centrifugation (Beckman Avanti J-E) at 200×g for 5 min.
(§3) Using a Biomek FX 384 well pipetting station (Beckman), conditioned culture medium (CCM) from the assay plate was transferred to MSD capture plates customized for each cytokine. For IFNα and IL12-p40 detection, […], of CCM were added directly to each capture plate, respectively. For TNFα detection, CCM was diluted 1:9 in fresh culture medium, and […], of diluted CCM was used. Serially diluted calibration standards for each cytokine were used to generate standard curves and establish assay linearity. The plates were sealed and incubated overnight at 4° C. in a plate shaker (Titer Plate) set at 200 rpm. On the following day, antibodies specific for each cytokine were diluted 1:50 in MSD Diluent 100 antibody dilution buffer. Diluted antibodies were added to corresponding capture plates at 10 μL/well, and incubated at RT for 1-2 hrs in the shaker. The plates were washed with PBST buffer (3×, 60 μl/well) using a Biotek Multiflow plate washer. MSD Read Buffer diluted to 2× in deionized water and 35 μL/well was added via Biomek FX instrument. The plates were read immediately in a MSD6000 reader. Data were normalized to positive and negative controls in each assay plate. AC50 values represent compound concentrations at half-maximal effect based on normalized percent activation and calculated by non-linear regression using Pipeline Pilot software (Accelrys, San Diego, Calif.).

[2] = test system: IL12p40; assay: Cytokine profiling assay in human PBMCs, IL12p40 detection (MSD); conditions: PBMC; cryopreserved human PBMCs, 24 hours at 37° C., half-maximal effect on normalized percent activation
Description: as §1, §2, §3

[3] = test system: IFNα; assay: Cytokine profiling assay in human PBMCs, IFNα detection (MSD); conditions: PBMC; cryopreserved human PBMCs, 24 hours at 37° C., half-maximal effect on normalized percent activation; read-out: IFNa AC50
Description: as §1, §2, §3

SMILES | AC50 [1] [µM] | AC50 [2] [µM] | AC50 [3] [µM]
CCCC[C@](C)(CNC(C)=O)Nc1nc(N)nc2cc(F)ccc12 [Example 2, (R)—N-(2-((2-amino-7-fluoroquinazolin-4-yl)amino)-2-methylhexyl)acetamide] | 0.0409 | 0.00883 | > 50
CCCC[C@](C)(CNC(C)=O)Nc1nc(N)nc2ccccc12 [Example 1, (R)—N-(2-((2-aminoquinazolin-4-yl)amino)-2-methylhexyl)acetamide] | 0.063 | 0.0522 | > 50
CCCC[C@](C)(CNC(C)=O)Nc1nc(N)nc2cnccc12 [Example 4, (R)—N-(2-((2-aminopyrido[3,4-d]pyrimidin-4-yl)amino)-2-methylhexyl)acetamide] | 0.11 | 0.132 | > 50
CCCC[C@](C)(CNC(C)=O)Nc1nc(N)nc2c1CN(C(C)=O)CC2 [Example 7, (R)—N-(2-((6-acetyl-2-amino-5,6,7,8-tetrahydropyrido[4,3-d]pyrimidin-4-yl)amino)-2-methylhexyl)acetamide] | 2.5 | 2.32 | > 50
CCCC[C@H](CNC(C)=O)Nc1nc(N)nc2cc(F)ccc12 [Example 11, (R)—N-(2-((2-amino-7-fluoroquinazolin-4-yl)amino)hexyl)acetamide] | 0.561 | 0.433 | > 50
CCCC[C@](C)(CNC(C)=O)Nc1nc(N)nc2c1CCCC2 [Example 6, (R)—N-(2-((2-amino-5,6,7,8-tetrahydroquinazolin-4-yl)amino)-2-methylhexyl)acetamide] | 10.2 | 9.58 | > 50
CCCC[C@H](CNC(C)=O)Nc1nc(N)nc2ccccc12 [Example 10, (R)—N-(2-((2-aminoquinazolin-4-yl)amino)hexyl)acetamide] | 1.67 | 1.31 | > 50
CCCC[C@](C)(CNC(C)=O)Nc1nc(N)nc2ncccc12 [Example 5, (R)—N-(2-((2-aminopyrido[2,3-d]pyrimidin-4-yl)amino)-2-methylhexyl)acetamide] | 0.543 | 0.364 | > 50
CCCC[C@H](CNC(C)=O)Nc1nc(N)nc2cc(F)c(F)cc12 [Example 12, (R)—N-(2-((2-amino-6,7-difluoroquinazolin-4-yl)amino)hexyl)acetamide] | 10.2 | 12 | > 50
CCCC[C@](C)(CNC(C)=O)Nc1nc(N)nc2nccnc12 [Example 14, (R)—N-(2-((2-aminopteridin-4-yl)amino)-2-methylhexyl)acetamide] | 1.91 | 1.9 | > 50
CCCC[C@](C)(CNC(C)=O)Nc1nc(N)nc2c1CCN(C(C)=O)C2 [Example 8, (R)—N-(2-((7-acetyl-2-amino-5,6,7,8-tetrahydropyrido[3,4-d]pyrimidin-4-yl)amino)-2-methylhexyl)acetamide] | 4.61 | 3.63 | > 50
CCCC[C@H](CNC(C)=O)Nc1nc(N)nc2ccsc12 [Example 13] | 9.52 | 8.29 | > 50
CCCC[C@](C)(CNC(C)=O)Nc1nc(N)nc2ccsc12 [Example 9] | 1.1 | 0.855 | > 50
CCCC[C@](C)(CNC(C)=O)Nc1nc(N)nc2cc(F)c(F)cc12 [Example 3, (R)—N-(2-((2-amino-6,7-difluoroquinazolin-4-yl)amino)-2-methylhexyl)acetamide] | 0.812 | 0.703 | > 50
